From patent publication US6977262B2, “Dihydropyrazolopyridine compounds and pharmaceutical use thereof” (Mitsubishi Pharma Corporation, priority 2001, dated 2005)

Compound | melting point
CCCC1=C(C(=O)OCC)C(c2ccccc2C(F)(F)F)c2c[nH]nc2N1 (stereo not shown) [Example 31, Ethyl 4,7-dihydro-6-propyl-4-(2-trifluoromethylphenyl)-2H-pyrazolo[3,4-b]pyridine-5-carboxylate] | 198 to 202 °C
CCCC1=C(C(=O)OCC)C(c2ccccc2OCC)c2c[nH]nc2N1 (stereo not shown) [Example 33, Ethyl 4-(2-ethoxyphenyl)-4,7-dihydro-6-propyl-2H-pyrazolo[3,4-b]pyridine-5-carboxylate] | 203 °C
CCCOc1ccccc1C1C(C(=O)OCC)=C(CCC)Nc2n[nH]cc21 (stereo not shown) [Example 34, Ethyl 4,7-dihydro-4-(2-propoxyphenyl)-6-propyl-2H-pyrazolo[3,4-b]pyridine-5-carboxylate] | 205 °C
CCCC1=C(C(=O)OCC)C(c2ccccc2OC(C)C)c2c[nH]nc2N1 (stereo not shown) [Example 35, Ethyl 4,7-dihydro-4-(2-isopropyloxyphenyl)-6-propyl-2H-pyrazolo[3,4-b]pyridine-5-carboxylate] | 210 °C
CCCCOc1ccccc1C1C(C(=O)OCC)=C(CCC)Nc2n[nH]cc21 (stereo not shown) [Example 36, Ethyl 4-(2-butoxyphenyl)-4,7-dihydro-6-propyl-2H-pyrazolo[3,4-b]pyridine-5-carboxylate] | 171 °C
CCCC1=C(C(=O)OCC)C(c2ccccc2OC2CCCC2)c2c[nH]nc2N1 (stereo not shown) [Example 37, Ethyl 4-(2-cyclopentyloxyphenyl)-4,7-dihydro-6-propyl-2H-pyrazolo[3,4-b]pyridine-5-carboxylate] | 195 °C
CCCC1=C(C(=O)OCC)C(c2ccccc2OCc2ccccc2)c2c[nH]nc2N1 (stereo not shown) [Example 38, Ethyl 4-(2-benzyloxyphenyl)-4,7-dihydro-6-propyl-2H-pyrazolo[3,4-b]pyridine-5-carboxylate] | 128 °C
CCCC1=C(C(=O)OCC)C(c2ccccc2[N+](=O)[O-])c2c[nH]nc2N1 (stereo not shown) [Example 41, Ethyl 4,7-dihydro-4-(2-nitrophenyl)-6-propyl-2H-pyrazolo[3,4-b]pyridine-5-carboxylate] | 218 °C
CCCC1=C(C(=O)OCC)C(c2cccc(F)c2F)c2c[nH]nc2N1 (stereo not shown) [Example 43, Ethyl 4-(2,3-difluorophenyl)-4,7-dihydro-6-propyl-2H-pyrazolo[3,4-b]pyridine-5-carboxylate] | 207 °C
CCCC1=C(C(=O)OCC)C(c2cccc(Cl)c2Cl)c2c[nH]nc2N1 (stereo not shown) [Example 44, Ethyl 4-(2,3-dichlorophenyl)-4,7-dihydro-6-propyl-2H-pyrazolo[3,4-b]pyridine-5-carboxylate] | 220 °C

More lines, now with the values ahead:

melting point | Compound
223 °C | CCCC1=C(C(=O)OCC)C(c2ccccc2Br)c2c[nH]nc2N1 (stereo not shown) [Example 29, Ethyl 4-(2-bromophenyl)-4,7-dihydro-6-propyl-2H-pyrazolo[3,4-b]pyridine-5-carboxylate]
178 °C | CCCC1=C(C(=O)OCC)C(c2ccccc2C)c2c[nH]nc2N1 (stereo not shown) [Example 30, Ethyl 4,7-dihydro-4-(2-methylphenyl)-6-propyl-2H-pyrazolo[3,4-b]pyridine-5-carboxylate]
169 °C | CCCC1=C(C(=O)OCC)C(c2ccccc2OC)c2c[nH]nc2N1 (stereo not shown) [Example 32, Ethyl 4,7-dihydro-4-(2-methoxyphenyl)-6-propyl-2H-pyrazolo[3,4-b]pyridine-5-carboxylate]
198 °C | CCCC1=C(C(=O)OCC)C(c2ccccc2SC)c2c[nH]nc2N1 (stereo not shown) [Example 39, Ethyl 4,7-dihydro-4-(2-methylthiophenyl)-6-propyl-2H-pyrazolo[3,4-b]pyridine-5-carboxylate]
216 °C | CCCC1=C(C(=O)OCC)C(c2ccccc2[S+](C)[O-])c2c[nH]nc2N1 (stereo not shown) [Example 40, Ethyl 4,7-dihydro-4-(2-methylsulfinylphenyl)-6-propyl-2H-pyrazolo[3,4-b]pyridine-5-carboxylate]
211 °C | CCCC1=C(C(=O)OCC)C(c2ccccc2C#N)c2c[nH]nc2N1 (stereo not shown) [Example 42, Ethyl 4-(2-cyanophenyl)-4,7-dihydro-6-propyl-2H-pyrazolo[3,4-b]pyridine-5-carboxylate]
